{"source": "paper PMC11459172", "about": "(Proceedings of the National Academy of Sciences of the …, 2024)", "key": {"PARP1/2": {"system": "PARP1/2", "type": "cell-based, human", "details": "TruHD fibroblasts, HD vs control; as Fig 3B; SI Fig S6C"}, "[1]": {"experiment": "Fluorescence polarization with FAM-labeled 11-mer or 26-mer PAR", "type": "binding", "details": "25 nM FAM-labeled PAR, up to 10 μM protein"}, "PARP1": {"target": "PARP1 (Homo sapiens, UniProt P09874)", "sequence (P09874 whole entry)": "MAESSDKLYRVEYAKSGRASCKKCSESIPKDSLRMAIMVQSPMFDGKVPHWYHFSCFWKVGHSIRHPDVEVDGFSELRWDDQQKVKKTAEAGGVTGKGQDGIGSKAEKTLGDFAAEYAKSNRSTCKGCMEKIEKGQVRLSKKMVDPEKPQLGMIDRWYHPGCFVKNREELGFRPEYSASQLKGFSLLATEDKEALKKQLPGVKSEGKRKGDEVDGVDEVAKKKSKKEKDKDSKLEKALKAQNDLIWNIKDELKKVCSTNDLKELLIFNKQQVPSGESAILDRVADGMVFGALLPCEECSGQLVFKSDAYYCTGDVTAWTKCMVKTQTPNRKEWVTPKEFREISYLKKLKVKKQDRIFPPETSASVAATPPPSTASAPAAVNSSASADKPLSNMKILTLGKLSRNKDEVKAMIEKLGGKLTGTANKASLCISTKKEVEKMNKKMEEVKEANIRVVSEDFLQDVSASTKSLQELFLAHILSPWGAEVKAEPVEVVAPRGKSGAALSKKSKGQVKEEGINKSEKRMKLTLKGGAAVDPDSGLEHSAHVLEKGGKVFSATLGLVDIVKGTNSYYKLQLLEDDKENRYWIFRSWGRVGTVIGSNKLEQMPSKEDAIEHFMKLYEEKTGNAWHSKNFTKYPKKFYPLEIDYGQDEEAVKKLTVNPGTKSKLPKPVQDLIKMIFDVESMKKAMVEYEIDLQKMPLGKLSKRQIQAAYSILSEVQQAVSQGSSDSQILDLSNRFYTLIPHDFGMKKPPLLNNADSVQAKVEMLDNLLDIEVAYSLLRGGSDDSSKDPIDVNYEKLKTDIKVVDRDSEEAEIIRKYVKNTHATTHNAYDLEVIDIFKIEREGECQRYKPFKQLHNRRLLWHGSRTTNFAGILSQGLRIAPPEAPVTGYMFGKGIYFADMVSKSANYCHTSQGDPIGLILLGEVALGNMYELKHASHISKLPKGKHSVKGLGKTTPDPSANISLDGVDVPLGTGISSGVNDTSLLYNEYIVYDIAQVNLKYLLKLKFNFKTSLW", "experiment": "In vitro PARP1 autoPARylation reaction with recombinant HTT-HAP40, western blot", "type": "biochemical", "details": "10 fmol recombinant PARP1, 2 h at 30 °C, increasing amounts of HTT-HAP40"}, "PARG": {"target": "PARG (Homo sapiens, UniProt Q86W56)", "sequence (Q86W56 whole entry)": "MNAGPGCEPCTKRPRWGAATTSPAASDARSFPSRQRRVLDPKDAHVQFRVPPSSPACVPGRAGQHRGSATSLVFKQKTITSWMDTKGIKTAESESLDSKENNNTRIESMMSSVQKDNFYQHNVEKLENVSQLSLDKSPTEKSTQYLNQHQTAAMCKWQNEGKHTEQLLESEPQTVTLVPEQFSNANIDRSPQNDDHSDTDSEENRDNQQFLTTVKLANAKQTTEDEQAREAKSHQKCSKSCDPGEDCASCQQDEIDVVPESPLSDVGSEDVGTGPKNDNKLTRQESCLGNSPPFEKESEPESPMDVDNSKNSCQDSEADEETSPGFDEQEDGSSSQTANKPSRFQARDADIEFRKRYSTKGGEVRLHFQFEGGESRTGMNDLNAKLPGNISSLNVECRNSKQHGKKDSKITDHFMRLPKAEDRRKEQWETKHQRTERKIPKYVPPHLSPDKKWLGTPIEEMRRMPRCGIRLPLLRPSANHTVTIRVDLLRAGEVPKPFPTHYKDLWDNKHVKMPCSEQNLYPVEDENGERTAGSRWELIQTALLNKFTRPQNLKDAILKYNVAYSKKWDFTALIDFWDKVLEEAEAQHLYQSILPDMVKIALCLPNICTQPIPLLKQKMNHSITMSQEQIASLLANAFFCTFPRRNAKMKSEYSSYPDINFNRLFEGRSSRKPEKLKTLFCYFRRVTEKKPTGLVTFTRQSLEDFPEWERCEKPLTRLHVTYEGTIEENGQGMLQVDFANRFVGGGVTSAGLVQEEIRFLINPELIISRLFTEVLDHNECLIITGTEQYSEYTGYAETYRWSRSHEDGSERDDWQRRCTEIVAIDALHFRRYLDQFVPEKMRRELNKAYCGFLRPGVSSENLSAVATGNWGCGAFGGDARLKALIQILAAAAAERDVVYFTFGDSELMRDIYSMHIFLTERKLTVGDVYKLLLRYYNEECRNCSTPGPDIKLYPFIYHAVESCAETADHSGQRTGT", "type": "cell-based", "details": "TruHD fibroblasts, HD vs control"}}}
{"molecule": "Cn1ncnc1[C@H]1c2n[nH]c(=O)c3cc(F)cc(c23)N[C@@H]1c1ccc(F)cc1", "note": "[talazoparib]", "values": [{"measurement": "PARP inhibitor IC50, HD cells compared to controls", "setting": "PARP1/2", "value": "reduced IC50 in HD cells"}]}
{"molecule": "wild-type HTT: purified recombinant wild-type huntingtin in complex with HAP40, Q23", "values": [{"measurement": "PAR binding by fluorescence polarization", "setting": "[1]; listed as HTT", "value": "binds long (26-mer) PAR chains, in preference to shorter (11-mer) substrates"}, {"measurement": "PAR binding by fluorescence polarization", "setting": "[1]; listed as HTT-HAP40 Q23", "value": "lower binding than the positive control PAR-binding protein HUWE1, but higher binding than the negative control non-PAR-binding protein USP5"}, {"measurement": "Effect on PARP1 autoPARylation activity", "setting": "PARP1", "value": "stimulated PARP1 activity in a dose-dependent manner"}]}
{"molecule": "PDD00017273", "values": [{"measurement": "PARG inhibitor IC50, HD compared to control cells", "setting": "PARG", "value": "no difference between HD and control cells"}]}
